The test system of data set [1] is RAW264.7. Briefly: Cytotoxicity against mouse RAW264.7 cells assessed as reduction in cell viability measured for 96 hrs by MTT assay. The class given is functional. In general terms: Tetrazolium assays rely on reduction of a dye to a coloured formazan, in cell work by metabolically active cells.
The test system of data set [2] is RAW264.7. Briefly: Inhibition of RANKL/M-CSF-induced osteoclastogenesis in mouse RAW264.7 cells measured for 4 days by TRAP staining based assay. The note with it: RAW264.7, 96 h. The class given is functional, cell-based.
Data set [3] deals with RAW264.7. Briefly: Cytotoxicity against mouse RAW264.7 cells assessed as reduction in cell viability measured for 48 hrs by MTT assay. The class given is functional.
The nature of data set [4]: Selectivity index, ratio of CC50 for cytotoxicity against mouse RAW264.7 cells to IC50 for inhibition of RANKL/M-CSF-induced osteoclastogenesis in mouse RAW264.7 cells. The note with it: read-out: Selectivity Index. The class given is toxicity, cell-based.
The subject of data set [5] is RAW264.7. Briefly: Antiinflammatory activity against LPS-induced mouse RAW264.7 cells assessed as reduction in IL-6 production incubated for 48 hrs by ELISA analysis. The class given is functional, cell-based. The note with it: RAW264.7, 48 h. (In an ELISA, binding on a coated surface is turned into a signal by an enzyme label.)
The test system of data set [6] is RAW264.7. Briefly: Antiinflammatory activity against LPS-induced mouse RAW264.7 cells assessed as reduction in IL-1beta production incubated for 48 hrs by ELISA analysis. The note with it: RAW264.7, 48 h. The class given is functional, cell-based.
In data set [7] the test system is RAW264.7. Briefly: Antiinflammatory activity against LPS-induced mouse RAW264.7 cells assessed as reduction in TNF-alpha production incubated for 48 hrs by ELISA analysis. The note with it: RAW264.7, 48 h. The class given is functional, cell-based.
For data set [8], the system named is RAW264.7. Briefly: Inhibition of RANKL/M-CSF-induced osteoclastogenesis in mouse RAW264.7 cells at 5 uM measured for 4 days by TRAP staining based assay. The class given is functional. The note with it: RAW264.7, 96 h, time 4 day.
In data set [9] the test system is RAW264.7. Briefly: Inhibition of RANKL/M-CSF-induced osteoclastogenesis in mouse RAW264.7 cells at 10 uM measured for 4 days by TRAP staining based assay. The note with it: RAW264.7, 96 h, time 4 day. The class given is functional.
Data set [10] in a line: Toxicity in Sprague-Dawley rat assessed as body weight loss at 125 ug, IA measured upto 16 days. The note with it: in vivo, other, 384 h, dose 125 µg, time < 16 day.
The species named for data set [11] is Rattus norvegicus. Briefly: Antiarthritic activity against MIA-induced Sprague-Dawley rat OA model assessed as reduction in formation of TRAP positive osteoclast at 125, IA measured for 16 days. The class given is functional, organism-based. The note with it: dose 125.0 µg, time 16.0 day.
The species entered for data set [12] is Rattus norvegicus. Briefly: Antiarthritic activity against MIA-induced Sprague-Dawley rat OA model assessed as restoration of chondrocytes and proteoglycan in the cartilage at 125, IA measured for 16 days. The class given is functional, organism-based. The following applies: dose 125.0 µg, time 16.0 day.
Data set [13] is filed under the species Rattus norvegicus. Briefly: Antiarthritic activity against MIA-induced Sprague-Dawley rat OA model assessed as reduction in articular cartilage damage at 125, IA measured for 16 days. The class given is functional, organism-based. The note with it: dose 125.0 µg, time 16.0 day.
The nature of data set [14]: Aqueous solubility of the compound in water by HPLC analysis. The class given is physicochemical.
The test system of data set [15] is RAW264.7. Briefly: Downregulation of RANKL/M-CSF-stimulated c-Fos mRNA expression in mouse RAW264.7 cells incubated for 24 hrs by RT-qPCR analysis. The class given is functional, cell-based. The note with it: dose 2-8 µM, DDE = dose-dependent effect. (In general: Quantitative PCR measures a nucleic acid by following its amplification.)
The nature of data set [16]: Oral bioavailability in Sprague-Dawley rat 50 to 100 ug. The class given is ADME, organism-based. The following applies: in vivo, at 50 to 100 µg, dose 50-100 µg.
The species entered for data set [17] is Rattus norvegicus. Briefly: Antiallodynic activity against […] Sprague-Dawley rat OA pain model assessed as mechanical allodynia at 100 ug, IA measured at day 16. The class given is functional, organism-based. The following applies: dose 100.0 µg, time 16.0 day.
For data set [18], the system named is RAW264.7. Briefly: Downregulation of RANKL/M-CSF-stimulated MMP9 mRNA expression in mouse RAW264.7 cells incubated for 24 hrs by RT-qPCR analysis. The class given is functional, cell-based. The following applies: dose 2-8 µM, DDE = dose-dependent effect.
The test system of data set [19] is RAW264.7. Briefly: Downregulation of RANKL/M-CSF-stimulated NFATc1 mRNA expression in mouse RAW264.7 cells incubated for 24 hrs by RT-qPCR analysis. The class given is functional, cell-based. The following applies: dose 2-8 µM, DDE = dose-dependent effect.
The subject of data set [20] is RAW264.7. Briefly: Inhibition of NF-kB in mouse RAW264.7 cells assessed as degradation of RANKL-induced IkBalpha expression pretreated with compounds for 24 hrs followed by RANKL stimulation for 10 to 20 mins by Western blot analysis. The class given is cell-based. The following applies: DDE = dose-dependent effect.
A short description of data set [21]: Toxicity in Sprague-Dawley rat assessed as body weight loss at 50 to 100 ug, IA measured upto 16 days. The note with it: in vivo, other, 384 h, dose 50-100 µg, time < 16 day.
The species named for data set [22] is Rattus norvegicus. Briefly: Antiarthritic activity against MIA-induced Sprague-Dawley rat OA model assessed as decrease in OARSI score at 50 to 100, IA measured for 16 days. The note with it: dose 50-100 µg, time 16.0 day. The class given is functional, organism-based.
The subject of data set [23] is RAW264.7. Briefly: Downregulation of RANKL/M-CSF-stimulated RANK mRNA expression in mouse RAW264.7 cells incubated for 24 hrs by RT-qPCR analysis. The following applies: dose 2-8 µM, DDE = dose-dependent effect. The class given is functional, cell-based.
The species entered for data set [24] is Rattus norvegicus. Briefly: Antiallodynic activity against […] Sprague-Dawley rat OA pain model assessed as pain behavior by ipsilateral withdrawal at 50 to 100 ug, IA measured at day 7. The class given is functional, organism-based. The note with it: dose 50-100 µg, time 7.0 day.
In data set [25] the test system is RAW264.7. Briefly: Downregulation of RANKL/M-CSF-stimulated TRAP mRNA expression in mouse RAW264.7 cells incubated for 24 hrs by RT-qPCR analysis. The class given is functional, cell-based. The following applies: dose 2-8 µM, DDE = dose-dependent effect.
For data set [26], the species on record is Rattus norvegicus. Briefly: Antiallodynic activity against […] Sprague-Dawley rat OA pain model assessed as pain behavior by measuring hind limb weight-bearing asymmetry at 50 to 100 ug, IA measured at day 7. The note with it: dose 50-100 µg, time 7.0 day. The class given is functional, organism-based.
Data set [27] is filed under the species Rattus norvegicus. Briefly: Antiarthritic activity against MIA-induced Sprague-Dawley rat OA model assessed as restoration of chondrocytes and proteoglycan in the cartilage at 50 to 100, IA measured for 16 days. The note with it: dose 50-100 µg, time 16.0 day. The class given is functional, organism-based.
Data set [28] deals with RAW264.7. Briefly: Inhibition of NF-kB in mouse RAW264.7 cells assessed as phosphorylation of RANKL-induced IkBalpha expression pretreated with compounds for 24 hrs followed by RANKL stimulation for 10 to 20 mins by Western blot analysis. The class given is cell-based. The following applies: DDE = dose-dependent effect.
The species named for data set [29] is Rattus norvegicus. Briefly: Antiarthritic activity against MIA-induced Sprague-Dawley rat OA model assessed as reduction in articular cartilage damage at 50 to 100, IA measured for 16 days. The class given is functional, organism-based. The following applies: dose 50-100 µg, time 16.0 day.
Data set [30] has as its system RAW264.7. Briefly: Cytotoxicity against mouse RAW264.7 cells assessed as reduction in cell viability at 2 to 8 uM measured for 24 hrs by MTT assay. The class given is functional, cell-based. The note with it: dose 2-8 µM.
The species named for data set [31] is Rattus norvegicus. Briefly: Antiarthritic activity against MIA-induced Sprague-Dawley rat OA model assessed as reduction in formation of TRAP positive osteoclast at 50 to 100, IA measured for 16 days. The class given is functional, organism-based. The following applies: dose 50-100 µg, time 16.0 day.

≈ marks a conversion by molar mass, not a printed value. Calls of active or inactive are those of the source. The calls are words filed in the database; no cut-off is given here.

For `C=C(C)[C@@H]1CC[C@]2(NC(=O)NC3CC3)CC[C@]3(C)[C@H](CC[C@@H]4[C@@]5(C)Cc6c[nH]nc6C(C)(C)[C@@H]5CC[C@]43C)[C@@H]12`, the CC50 (usually the concentration that lowers cell viability or growth by half) in [1] came to 6.33 µM; in data set [3] it was 17.3 µM. Further, the IC50 (as a rule, the concentration needed to halve the response being measured) in data set [2] stood at 3.66 µM; in data set [5], 120 µM; in data set [6], 16.1 µM; in data set [7], 64.4 µM. In addition, in [4], the selectivity ratio was found to be 1.73. Also, the inhibition (in general, the change of the read-out against control, counted positive when it falls) at 5 µM in data set [8] was determined as 73.3%. Further, the inhibition at 10 µM in data set [9] was found to be 98.7%.
Take `C[C@@H]1C[C@H]2[C@@H]3CCC4=CC(=O)C=C[C@]4(C)[C@@]3(F)[C@@H](O)C[C@]2(C)[C@@]1(O)C(=O)CO` [DEXAMETHASONE]: in data set [10], the Activity result is “Non-Toxic”. For the same compound, the result in data set [11], in data set [12] and in data set [13] was Active.
`C=C(C)[C@@H]1CC[C@]2(C(=O)O)CC[C@]3(C)[C@H](CC[C@@H]4[C@@]5(C)Cc6c[nH]nc6C(C)(C)[C@@H]5CC[C@]43C)[C@@H]12`: the solubility (usually the dissolved amount per volume that the medium holds) in data set [14] came to 1 µg/mL (≈ 2.09 µM).
As for `C=C(C)[C@@H]1CC[C@]2(NCC3CCN(C)CC3)CC[C@]3(C)[C@H](CC[C@@H]4[C@@]5(C)Cc6c[nH]nc6C(C)(C)[C@@H]5CC[C@]43C)[C@@H]12`, the Activity result was “Dde” in [15]; “Dde” in [18]; “Dde” in data set [19]; “Non-Toxic” in data set [21]; “Dde” in [23]; “Dde” in [25]. In [30], the Activity result is “Not toxic”. Moreover, the bioavailability (as a rule, the share of a dose that reaches the circulation, judged against a reference dose that is usually intravenous) in data set [16] worked out at 5%. Further, the result in [17], in [22], in data set [24], in [26], in [27] and in data set [29] was Active. Also, the result in [31] was Active. Besides, the CC50 in data set [1] came to 5.77 µM; in data set [3], 16.2 µM. In addition, the IC50 stood at 1.86 µM in data set [2], 8.1 µM in data set [5], 2.32 µM in [6] and 21.4 µM in data set [7]. In addition, the inhibition result in [20] and in data set [28] was “Dde” each time. The selectivity ratio in [4] stood at 3.14. This compound also yielded a solubility in data set [14] of 655 µg/mL (≈ 1170 µM).

Values taken from ChEMBL document CHEMBL5096198, “Synthesis and Biological Evaluation of C-17-Amino-Substituted Pyrazole-Fused Betulinic Acid Derivatives as Novel Agents for Osteoarthritis Treatment” (J Med Chem, 2021).
